From patent US10933064B2, “Crystalline forms of 5-bromo-2,6-di(1H-pyrazol-1-yl)pyrimidin-4-amine and new salts” (Novartis AG, priority 2017, dated 2021)
Converted amounts (≈) assume the structure as drawn.

What was measured:
[1] = Solubility in aqueous buffers and bio-relevant media; settings: the salt dissociates
[2] = Intrinsic dissolution rate; assay type: physicochemical
[3] = Stability when blended with excipients; assay type: physicochemical; settings: four excipients (gelatin, HPMC, wet granulation mixture, dry blended mixture), 50° C./75% RH
[4] = Hygroscopicity, water sorption-desorption isotherm (DVS); assay type: physicochemical
Text: Crystalline form F is non-hygroscopic.

physchem = settings: aqueous buffer
[5] = 1 week
[6] = 1 week, 0.1 %, pH 1.2
[7] = Thermal stability of the crystalline form on heating and cooling (XRPD); assay type: physicochemical; settings: heating to 220° C. (melt) then cooling to 30° C.
[8] = Phase change on exposure to humidity; assay type: physicochemical
[9] = Physical stability on compression (XRPD); assay type: physicochemical; settings: 5 minutes at 0.5 ton, 0.8 cm diameter disc
Experimental: The crystallinity of form F was evaluated by XRPD after compression for 5 minutes at 0.5 ton with 0.8 cm diameter disc.

[10] = Granulation simulation experiments (XRPD, DSC); assay type: physicochemical; settings: ground at 25° C.
Experimental: The physical stability of crystalline form F was also evaluated in granulation simulation experiments. In these experiments granulating solvent was added dropwise to the crystalline form F until the solid is wetted sufficiently. The mixture was then ground in a mortar/pestle at room temperature (25° C. for 2-3 minutes) between each addition. The crystallinity of the material (post-grinding) was re-evaluated by XRPD and DSC.

Structure (SMILES) | solubility compared with free form F [1] | intrinsic dissolution ([2]; 0.01N HCl pH=2) [mg/cm^2/min] | intrinsic dissolution ([2]; acetate buffer pH 4.7) [mg/cm^2/min] | intrinsic dissolution ([2]; phosphate buffer pH 6.8) [mg/cm^2/min] | degradation when blended with excipients [3] | hygroscopicity ([4]; relative humidity above 70%) | solubility (physchem) [µg/mL] | intrinsic dissolution ([2]; 0.01N HCl pH=2, listed as form F) [mg/cm^2/min] | intrinsic dissolution ([2]; acetate buffer pH 4.7, listed as form F) [mg/cm^2/min] | intrinsic dissolution ([2]; phosphate buffer pH 6.8, listed as form F) [mg/cm^2/min] | degradation in bulk [5] | degradation in buffer solution [6] [%] | degradation in buffer solutions [6] | crystalline form after heating and cooling [7] | phase change on exposure to humidity [8] | form change after compression [9] | form change after granulation simulation ([10]; ethanol as granulation solvent) | form change after granulation simulation ([10]; water as granulation solvent) | hygroscopicity ([4]; DVS, 25° C.) | moisture absorbed ([4]; DVS, up to 90% relative humidity, 25° C.)
Nc1nc(-n2cccn2)nc(-n2cccn2)c1Br [Form C, 5-bromo-2,6-di(1H-pyrazol-1-yl)pyrimidin-4-amine] | does not show any better solubility than the free form F | 0.0592 | 0.0264 | 0.0277 | about 1% | very hygroscopic |  |  |  |  |  |  |  |  |  |  |  |  |  | 
Nc1nc(-n2cccn2)nc(-n2cccn2)c1Br [Form F, 5-bromo-2,6-di(1H-pyrazol-1-yl)pyrimidin-4-amine] |  |  |  |  |  |  | ~100 (≈ 327 µM) | 0.0115 | 0.0085 | 0.0084 | less than 1% | 1 | less than 0.5% | remains unchanged | little to no phase change | no form change | no form change | no form change | non-hygroscopic | less than 0.2%
